Test [1] deals with T1, recombinant N-terminal PMS2 (residues 1-365) (Homo sapiens, UniProt P54278).
T1 construct: recombinant N-terminal PMS2 (residues 1-365)
T1 sequence (P54278 1-365): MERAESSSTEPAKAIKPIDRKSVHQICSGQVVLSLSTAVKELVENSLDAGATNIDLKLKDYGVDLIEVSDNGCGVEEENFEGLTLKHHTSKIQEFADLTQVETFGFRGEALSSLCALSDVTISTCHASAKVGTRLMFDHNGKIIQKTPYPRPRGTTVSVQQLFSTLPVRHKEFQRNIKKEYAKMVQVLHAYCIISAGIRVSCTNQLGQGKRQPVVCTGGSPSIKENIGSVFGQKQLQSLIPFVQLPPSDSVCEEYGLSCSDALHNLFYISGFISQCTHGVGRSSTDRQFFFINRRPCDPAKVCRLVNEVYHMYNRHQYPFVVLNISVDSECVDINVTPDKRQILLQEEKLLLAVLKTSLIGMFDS
Put plainly: Fluorescence Polarisation Assay for PMS2. In kind it is binding. As to conditions: fluorescence polarisation probe displacement; 10 nM N-terminal PMS2, 5 nM probe compound; read-out: PMS2 IC50. The protocol:
Fluorescence Polarisation Assay for PMS2
For single point screening, test compounds were added to wells in columns 1-22 whilst DMSO was added to wells in columns 23 and 24 in order to normalise the plate. For potency determination, serial dilutions of test compounds were added to wells in columns 3-22 and DMSO volume was normalised across the plate.
20 μL assay buffer was added to all wells in columns 1 and 24 (column 24 only for single point screening) using a MultiDrop Combi (ThermoFisher). Plates were centrifuged for 1 minute at 250×g and were incubated at room temperature for 30 minutes prior to the addition of 20 μL of 2× (20 nM) of 5-((5-(4-((2-(2,4-dihydroxy-5-isopropylbenzoyl)isoindolin-5-yl)methyl)piperazin-1-yl)pentyl)carbamoyl)-2-(6-(dimethylamino)-3-(dimethyliminio)-3H-xanthen-9-yl)benzoate (referred to hereinafter as “probe compound”) in assay buffer (prepared from a 100 μM DMSO stock) with a MultiDrop Combi (ThermoFisher). The final concentration of N-terminal PMS2 was 10 nM and the final concentration of probe compound was 5 nM.
Compound plates were centrifuged for 1 minute at 250×g for 1 minute and were incubated at room temperature for 1 hour before being read on a PheraStar FSX (fitted with 384-well aperture spoon and 540 590 590 FP optic module). The gain and focus were adjusted before each plate was read so that the polarisation of a no enzyme control (column 24) was equal to 35 mP. Data were normalised against the no inhibitor controls (column 23) and no enzyme controls (column 24).
Background: Polarisation of emitted light reports the rotation of a fluorescent probe.

Test [2] deals with T2, recombinant N-terminal MLH1 (residues 15-340) (Homo sapiens, UniProt P40692).
T2 construct: recombinant N-terminal MLH1 (residues 15-340)
T2 sequence (P40692 15-340): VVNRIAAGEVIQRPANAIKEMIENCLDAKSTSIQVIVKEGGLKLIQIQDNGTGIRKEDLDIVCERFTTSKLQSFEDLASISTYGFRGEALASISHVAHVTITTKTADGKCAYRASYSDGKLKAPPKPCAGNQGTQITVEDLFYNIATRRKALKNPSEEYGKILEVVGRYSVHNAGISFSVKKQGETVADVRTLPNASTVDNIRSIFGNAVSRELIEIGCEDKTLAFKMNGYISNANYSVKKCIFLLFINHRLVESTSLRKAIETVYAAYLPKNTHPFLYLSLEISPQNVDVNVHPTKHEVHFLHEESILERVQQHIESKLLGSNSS
Put plainly: Fluorescence Polarisation Assay for MLH1. It is filed as binding. As to conditions: fluorescence polarisation probe displacement; 100 nM N-terminal MLH1, 5 nM probe compound. The method, then: Fluorescence Polarisation Assay for MLH1
Test compounds, as 10 mM DMSO stocks, were dispensed into a 384-well Low Flange Black Flat Bottom Polystyrene Non-binding Surface plate (Corning®, item number 3575) using a Labcyte Echo acoustic liquid handler. Test compounds were added to wells in columns 1-22 whilst DMSO was added to wells in columns 23 and 24 in order to normalise the plate. 20 μL of a 2× solution (200 nM) of recombinant N-terminal MLH1 (residues 15-340) in assay buffer (25 mM HEPES, pH 7.5, 250 mM NaCl, 10 mM MgCl2, 0.01% Triton X-100, 5 mM dithiothreitol) was added to all wells in columns 1-23 and 20 μL assay buffer was added to all wells in column 24 using an E1-ClipTip pipette (ThermoFisher). Plates were centrifuged for 1 minute at 250×g and were incubated at room temperature for 30 minutes prior to the addition of 20 μL of 2× (10 nM) 5-((5-(4-((2-(2,4-dihydroxy-5-isopropylbenzoyl)isoindolin-5-yl)methyl)piperazin-1-yl)pentyl)carbamoyl)-2-(6-(dimethylamino)-3-(dimethyliminio)-3H-xanthen-9-yl)benzoate in assay buffer (prepared from a 1 mM DMSO stock) with an E1-ClipTip pipette (ThermoFisher). The final concentration of N-terminal MLH1 was 100 nM and the final concentration of the probe compound was 5 nM. Compound plates were centrifuged for 1 minute at 250×g for 1 minute and immediately read on a PheraStar FSX (fitted with 384-well aperture spoon and 590 675 675 FP optic module). The gain and focus were adjusted before each plate was read so that the polarisation of a no enzyme control (column 24) was equal to 35 mP. Data were normalised against the no inhibitor controls (column 23) and no enzyme controls (column 24).

Each structure is given as a SMILES string. Where only a bound is given, the exact number is not on record here.

For orientation: IC50 means the midpoint of a concentration-inhibition curve. Consider `O=C(c1c(O)cc(O)cc1OCc1ccccc1)N1Cc2cccc(OC3CCOC3)c2C1` (centres unmarked) [Example 88, (2-(Benzyloxy)-4,6-dihydroxyphenyl)(4-((tetrahydrofuran-3-yl)oxy)isoindolin-2-yl)methanone], for which the IC50 in test [1] and in test [2] was 1000 to 10000 nM throughout.
Consider `Cc1ncncc1Nc1cccc2c1CN(C(=O)c1c(O)cc(O)cc1OCc1ccccc1)CC2` [Example 123, (2-(Benzyloxy)-4,6-dihydroxyphenyl)(8-((4-methylpyrimidin-5-yl)amino)-3,4-dihydroisoquinolin-2(1H)-yl)methanone], for which the figures for the IC50 in test [1] and in test [2] were above 10000 nM and 1000 to 10000 nM, respectively.
`O=C(c1c(O)cc(O)cc1OCc1ccccc1)N1CCc2cccc(Nc3cnccn3)c2C1` [Example 119, (2-(Benzyloxy)-4,6-dihydroxyphenyl)(8-(pyrazin-2-ylamino)-3,4-dihydroisoquinolin-2(1H)-yl)methanone]: the IC50 in test [1] and in test [2] was 1000 to 10000 nM in each case.
For `COc1ccc(COc2cc(O)cc(O)c2C(=O)N2Cc3cccc(NC4CCOC4)c3C2)cc1` (centres unmarked) [Example 39, (2,4-Dihydroxy-6-((4-methoxybenzyl)oxy)phenyl)(4-((tetrahydrofuran-3-yl)amino)isoindolin-2-yl)methanone], the IC50 in test [1] is 1000 to 10000 nM; in test [2], below 1000 nM.
In the same order, the values of `COC1COCC1Nc1cccc2c1CN(C(=O)c1c(O)cc(O)cc1OCc1ccccc1)CC2` (centres unmarked) [Example 148, (2-(Benzyloxy)-4,6-dihydroxyphenyl)(8-((4-methoxytetrahydrofuran-3-yl)amino)-3,4-dihydroisoquinolin-2(1H)-yl)methanone] are above 10000 nM and 1000 to 10000 nM.
In the same order, the values of `COc1cc2c(c(NC3CCOC3)c1)CN(C(=O)c1c(O)cc(O)cc1OCc1ccccc1)CC2` (single isomer, unassigned) [Example 73, (2-(Benzyloxy)-4,6-dihydroxyphenyl)(6-methoxy-8-((tetrahydrofuran-3-yl)amino)-3,4-dihydroisoquinolin-2(1H)-yl)methanone] are above 10000 nM and 1000 to 10000 nM.
On to `O=C(c1c(O)cc(O)cc1OCc1ccccc1)N1Cc2cccc(CNC3CCOC3)c2C1` (centres unmarked) [Example 80, (2-(Benzyloxy)-4,6-dihydroxyphenyl)(4-(((tetrahydrofuran-3-yl)amino)methyl)isoindolin-2-yl)methanone], for which the IC50 in test [1] and in test [2] was 1000 to 10000 nM throughout.
For the compound `Cn1cc(Nc2cccc3c2CN(C(=O)c2c(O)cc(O)cc2OCc2ccccc2)CC3)cn1` [Example 117, (2-(Benzyloxy)-4,6-dihydroxyphenyl)(8-((1-methyl-1H-pyrazol-4-yl)amino)-3,4-dihydroisoquinolin-2(1H)-yl)methanone], the IC50 was 1000 to 10000 nM in test [1] and below 1000 nM in test [2].
On to `O=C(c1c(O)cc(O)cc1OCc1ccccn1)N1Cc2cccc(NC3CCOC3)c2C1` (centres unmarked) [Example 40, (2,4-Dihydroxy-6-(pyridin-2-ylmethoxy)phenyl)(4-((tetrahydrofuran-3-yl)amino)isoindolin-2-yl)methanone], for which the IC50 in test [1] is above 10000 nM; in test [2] it was below 1000 nM.
For the compound `O=C(c1c(O)cc(O)cc1OCc1ccccc1)N1Cc2ccc(CNC3COC3)cc2C1` [Example 144, 2-(Benzyloxy)-4,6-dihydroxyphenyl-(5-((oxetan-3-ylamino)methyl)isoindolin-2-yl)methanone], the IC50 in test [1] and in test [2] was below 1000 nM each time.
`COCCOc1cc2c(c(N[C@H]3CCOC3)c1)CN(C(=O)c1c(O)cc(O)cc1OCc1ccccc1)CC2` [Example 64, (S)-(2-(Benzyloxy)-4,6-dihydroxyphenyl)(6-(2-methoxyethoxy)-8-((tetrahydrofuran-3-yl)amino)-3,4-dihydroisoquinolin-2(1H)-yl)methanone]: the half-maximal inhibitory concentration (IC50) was 1000 to 10000 nM in test [1] and below 1000 nM in test [2].
Take `CC(=O)N1CC[C@@H](Nc2cccc3c2CN(C(=O)c2c(O)cc(O)cc2OCc2ccccc2)CC3)C1` [Example 66, (R)-1-(3-((2-(2-(Benzyloxy)-4,6-dihydroxybenzoyl)-1,2,3,4-tetrahydroisoquinolin-8-yl)amino)pyrrolidin-1-yl)ethan-1-one]: the results for the IC50 in test [1] and in test [2] were above 10000 nM and below 1000 nM, respectively.
The corresponding values for `N#CC1CN(c2cccc3c2CN(C(=O)c2c(O)cc(O)cc2OCc2ccccc2)C3)C1` [Example 92, 1-(2-(2-(Benzyloxy)-4,6-dihydroxybenzoyl)isoindolin-4-yl)azetidine-3-carbonitrile] are 1000 to 10000 nM and 1000 to 10000 nM.
In the case of `CN(C)CCOc1cc2c(c(N[C@@H]3CCOC3)c1)CN(C(=O)c1c(O)cc(O)cc1OCc1ccccc1)CC2` [Example 131, (R)-(2-(Benzyloxy)-4,6-dihydroxyphenyl)(6-(2-(dimethylamino)ethoxy)-8-((tetrahydrofuran-3-yl)amino)-3,4-dihydroisoquinolin-2(1H)-yl)methanone], the IC50 in test [1] was 1000 to 10000 nM; in test [2], below 1000 nM.
With `N#CC1CC(Oc2cccc3c2CN(C(=O)c2c(O)cc(O)cc2OCc2ccccc2)C3)C1` (centres unmarked) [Example 5, 3-((2-(2-(Benzyloxy)-4,6-dihydroxybenzoyl)isoindolin-4-yl)oxy)cyclobutane-1-carbonitrile], the IC50 in test [1] and in test [2] was 1000 to 10000 nM in each case.
For the compound `CC(Nc1cccc2c1CN(C(=O)c1c(O)cc(O)cc1OCc1ccccc1)C2)C1COC1` (centres unmarked) [Example 45, (2-(Benzyloxy)-4,6-dihydroxyphenyl)(4-((1-(oxetan-3-yl)ethyl)amino)isoindolin-2-yl)methanone], the IC50 in test [1] and in test [2] was 1000 to 10000 nM throughout.
Regarding `O=C(c1c(O)cc(O)cc1OCc1ccccc1)N1Cc2cccc(NC3CCOC3)c2C1` (centres unmarked) [Example 6, (2-(Benzyloxy)-4,6-dihydroxyphenyl)(4-((tetrahydrofuran-3-yl)amino)isoindolin-2-yl)methanone], the IC50 is 1000 to 10000 nM in test [1] and below 1000 nM in test [2].
The corresponding values for `CN1CCN(Cc2cc3c(c(N[C@@H]4CCOC4)c2)CN(C(=O)c2c(O)cc(O)cc2OCc2ccccc2)CC3)CC1` [Example 122, (R)-(2-(Benzyloxy)-4,6-dihydroxyphenyl)(6-((4-methylpiperazin-1-yl)methyl)-8-((tetrahydrofuran-3-yl)amino)-3,4-dihydroisoquinolin-2(1H)-yl)methanone] are 1000 to 10000 nM and below 1000 nM.
Turning to `O=C(c1c(O)cc(O)cc1OCc1ccccc1)N1Cc2cccc(N[C@H]3CCOC3)c2C1` [Example 22, (S)-(2-(Benzyloxy)-4,6-dihydroxyphenyl)(4-((tetrahydrofuran-3-yl)amino)isoindolin-2-yl)methanone], the IC50 in test [1] and in test [2] was below 1000 nM in each case.

For the origin of these results see patent publication US20240293392A1, “INHIBITOR COMPOUNDS” (NeoPhore Limited, priority 2021, published 2024).
